The source of these data is paper doi:10.1101/2024.08.13.607785v1 (biorxiv, 2024).

Read-outs that look alike come from different tables or passages of the source. Bounds are passed on as bounds.

What all share (assay): biochemical
Holding throughout (design): species or system human cell line lysate

Assay [1] has as its target Serine/threonine-protein kinase pim-1 ; PIM1 ; P11309 (Homo sapiens, UniProt P11309).
The target in assay [2] is Proto-oncogene tyrosine-protein kinase receptor Ret ; RET ; P07949 (Homo sapiens, UniProt P07949).
Proto-oncogene tyrosine-protein kinase receptor Ret ; RET ; P07949, sequence (P07949 whole entry): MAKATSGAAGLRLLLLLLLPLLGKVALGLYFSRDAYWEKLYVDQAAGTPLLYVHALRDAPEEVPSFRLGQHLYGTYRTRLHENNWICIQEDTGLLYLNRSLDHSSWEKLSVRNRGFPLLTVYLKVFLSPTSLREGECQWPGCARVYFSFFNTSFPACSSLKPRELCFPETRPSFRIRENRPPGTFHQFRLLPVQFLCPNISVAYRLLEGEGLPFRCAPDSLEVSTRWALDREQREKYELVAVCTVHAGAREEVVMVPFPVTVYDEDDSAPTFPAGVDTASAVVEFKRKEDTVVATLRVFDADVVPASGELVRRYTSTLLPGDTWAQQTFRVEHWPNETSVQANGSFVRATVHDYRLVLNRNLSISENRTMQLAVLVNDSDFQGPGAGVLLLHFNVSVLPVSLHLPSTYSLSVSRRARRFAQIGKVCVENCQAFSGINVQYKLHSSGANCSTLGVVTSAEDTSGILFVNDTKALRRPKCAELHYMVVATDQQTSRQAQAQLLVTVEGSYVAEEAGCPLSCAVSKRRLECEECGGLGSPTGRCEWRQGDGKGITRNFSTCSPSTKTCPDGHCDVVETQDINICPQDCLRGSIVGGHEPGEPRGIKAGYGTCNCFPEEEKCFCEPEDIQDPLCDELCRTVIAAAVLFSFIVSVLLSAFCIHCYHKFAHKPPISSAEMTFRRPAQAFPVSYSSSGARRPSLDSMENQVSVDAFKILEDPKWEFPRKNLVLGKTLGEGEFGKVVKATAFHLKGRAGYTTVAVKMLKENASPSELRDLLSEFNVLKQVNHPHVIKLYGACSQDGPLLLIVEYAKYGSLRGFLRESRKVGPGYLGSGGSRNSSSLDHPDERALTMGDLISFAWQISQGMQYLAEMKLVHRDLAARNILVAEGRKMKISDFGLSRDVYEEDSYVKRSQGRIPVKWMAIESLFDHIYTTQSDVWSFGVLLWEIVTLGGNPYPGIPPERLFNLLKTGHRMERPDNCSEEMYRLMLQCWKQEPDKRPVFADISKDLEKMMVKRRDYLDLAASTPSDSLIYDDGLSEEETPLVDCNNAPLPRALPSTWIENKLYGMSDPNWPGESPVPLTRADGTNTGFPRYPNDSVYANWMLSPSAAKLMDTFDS
Assay [3] addresses Ephrin type-A receptor 5 ; EPHA5 ; P54756 (Homo sapiens, UniProt P54756).
Assay [4] addresses Serine/threonine-protein kinase SIK3 ; SIK3 ; Q9Y2K2 (Homo sapiens, UniProt Q9Y2K2).
The target in assay [5] is T1, Cyclin-G-associated kinase ; GAK ; O14976 (Homo sapiens, UniProt O14976).
T1 sequence (O14976 1-1311): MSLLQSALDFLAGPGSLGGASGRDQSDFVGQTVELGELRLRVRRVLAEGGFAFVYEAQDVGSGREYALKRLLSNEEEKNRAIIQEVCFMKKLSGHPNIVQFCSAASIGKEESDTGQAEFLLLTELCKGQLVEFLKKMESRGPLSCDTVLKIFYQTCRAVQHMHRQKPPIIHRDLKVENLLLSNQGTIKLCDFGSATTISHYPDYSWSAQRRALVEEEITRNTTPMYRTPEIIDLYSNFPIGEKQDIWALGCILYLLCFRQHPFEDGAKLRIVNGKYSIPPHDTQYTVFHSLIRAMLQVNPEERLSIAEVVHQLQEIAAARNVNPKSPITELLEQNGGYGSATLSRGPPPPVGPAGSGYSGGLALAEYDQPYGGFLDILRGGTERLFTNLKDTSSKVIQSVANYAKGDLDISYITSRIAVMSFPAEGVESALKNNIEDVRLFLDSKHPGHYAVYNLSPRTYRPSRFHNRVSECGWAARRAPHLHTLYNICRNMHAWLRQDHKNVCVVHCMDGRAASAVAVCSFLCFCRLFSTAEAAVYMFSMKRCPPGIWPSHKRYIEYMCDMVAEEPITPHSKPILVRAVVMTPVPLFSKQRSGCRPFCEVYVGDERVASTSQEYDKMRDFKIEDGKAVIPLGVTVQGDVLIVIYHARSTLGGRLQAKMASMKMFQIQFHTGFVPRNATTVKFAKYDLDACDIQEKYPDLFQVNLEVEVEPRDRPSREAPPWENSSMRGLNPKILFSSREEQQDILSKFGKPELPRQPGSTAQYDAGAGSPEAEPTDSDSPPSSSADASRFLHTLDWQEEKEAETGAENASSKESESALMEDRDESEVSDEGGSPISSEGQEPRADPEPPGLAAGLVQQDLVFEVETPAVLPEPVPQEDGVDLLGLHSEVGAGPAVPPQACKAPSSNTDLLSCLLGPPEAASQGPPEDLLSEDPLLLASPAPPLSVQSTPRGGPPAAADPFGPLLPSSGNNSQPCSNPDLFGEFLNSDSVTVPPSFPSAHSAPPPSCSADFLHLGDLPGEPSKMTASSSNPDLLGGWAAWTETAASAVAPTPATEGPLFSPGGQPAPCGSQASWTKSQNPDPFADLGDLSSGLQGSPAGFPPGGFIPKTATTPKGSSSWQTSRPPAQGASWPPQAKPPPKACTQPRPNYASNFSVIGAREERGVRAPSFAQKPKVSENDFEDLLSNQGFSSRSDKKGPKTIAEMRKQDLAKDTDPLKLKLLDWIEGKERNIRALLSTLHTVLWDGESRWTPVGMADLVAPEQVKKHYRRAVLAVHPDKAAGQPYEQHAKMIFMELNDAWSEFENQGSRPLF

The target in assay [6] is Phosphoinositide 3-kinase regulatory subunit 4 ; PIK3R4 ; Q99570 (Homo sapiens, UniProt Q99570).
Phosphoinositide 3-kinase regulatory subunit 4 ; PIK3R4 ; Q99570, sequence (Q99570 whole entry, one chain of several): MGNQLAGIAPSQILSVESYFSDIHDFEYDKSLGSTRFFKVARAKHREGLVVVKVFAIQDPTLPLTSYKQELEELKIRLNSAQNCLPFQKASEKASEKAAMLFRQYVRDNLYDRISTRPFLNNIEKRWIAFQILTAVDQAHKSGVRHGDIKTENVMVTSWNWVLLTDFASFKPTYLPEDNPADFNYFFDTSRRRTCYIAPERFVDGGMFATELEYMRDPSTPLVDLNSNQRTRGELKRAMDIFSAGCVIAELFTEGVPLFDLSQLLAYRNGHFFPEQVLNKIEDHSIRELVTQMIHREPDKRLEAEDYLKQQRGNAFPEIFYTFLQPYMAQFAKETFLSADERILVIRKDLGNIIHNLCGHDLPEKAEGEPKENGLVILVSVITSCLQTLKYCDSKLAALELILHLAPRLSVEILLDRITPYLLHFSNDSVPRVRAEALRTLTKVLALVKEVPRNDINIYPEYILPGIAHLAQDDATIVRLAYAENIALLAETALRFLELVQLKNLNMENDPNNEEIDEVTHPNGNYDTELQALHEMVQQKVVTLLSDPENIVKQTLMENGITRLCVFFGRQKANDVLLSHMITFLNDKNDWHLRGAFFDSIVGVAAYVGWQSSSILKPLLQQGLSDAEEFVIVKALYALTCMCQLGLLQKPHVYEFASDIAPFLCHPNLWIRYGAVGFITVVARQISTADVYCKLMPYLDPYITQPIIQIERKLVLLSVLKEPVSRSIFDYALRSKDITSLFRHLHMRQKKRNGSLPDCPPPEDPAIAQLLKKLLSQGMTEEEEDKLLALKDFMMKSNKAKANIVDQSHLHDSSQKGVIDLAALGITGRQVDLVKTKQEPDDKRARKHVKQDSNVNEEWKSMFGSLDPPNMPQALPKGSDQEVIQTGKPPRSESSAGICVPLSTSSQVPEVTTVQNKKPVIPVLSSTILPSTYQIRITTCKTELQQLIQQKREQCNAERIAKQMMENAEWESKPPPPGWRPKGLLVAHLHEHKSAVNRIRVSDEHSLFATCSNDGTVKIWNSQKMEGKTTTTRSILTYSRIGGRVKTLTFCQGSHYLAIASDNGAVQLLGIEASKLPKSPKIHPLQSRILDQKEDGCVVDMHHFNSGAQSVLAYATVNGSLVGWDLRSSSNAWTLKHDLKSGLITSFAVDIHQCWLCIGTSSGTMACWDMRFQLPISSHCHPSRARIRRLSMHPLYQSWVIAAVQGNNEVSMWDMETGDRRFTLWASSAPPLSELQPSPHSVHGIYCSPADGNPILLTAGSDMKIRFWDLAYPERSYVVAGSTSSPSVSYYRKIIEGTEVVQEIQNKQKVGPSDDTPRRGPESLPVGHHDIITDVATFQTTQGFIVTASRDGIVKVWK
In assay [7] the target is High affinity nerve growth factor receptor ; NTRK1 ; P04629 (Homo sapiens, UniProt P04629).
Assay [8] deals with Cyclin-dependent kinase 16 ; CDK16 ; Q00536 (Homo sapiens, UniProt Q00536).
Assay [9] addresses Isoform 2 of Cyclin-dependent kinase 17 ; CDK17 ; Q00537-2 (Homo sapiens, UniProt Q00537).
For assay [10], the target named is Cyclin-dependent kinase 1 ; CDK1 ; P06493 (Homo sapiens, UniProt P06493).
Cyclin-dependent kinase 1 ; CDK1 ; P06493, sequence (P06493 whole entry, one chain of several): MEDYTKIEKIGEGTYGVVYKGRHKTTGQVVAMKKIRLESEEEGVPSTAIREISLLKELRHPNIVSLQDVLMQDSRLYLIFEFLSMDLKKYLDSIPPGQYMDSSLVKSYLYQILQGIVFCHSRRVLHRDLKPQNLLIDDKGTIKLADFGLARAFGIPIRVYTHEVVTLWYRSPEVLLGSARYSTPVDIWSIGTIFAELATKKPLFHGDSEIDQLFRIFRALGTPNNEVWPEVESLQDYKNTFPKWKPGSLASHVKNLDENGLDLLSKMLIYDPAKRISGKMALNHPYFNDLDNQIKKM
The mark [11] stands for this setting: read-out: BAY-1143572 (10 µM) / %Intensity relative to DMSO.
Where [12] appears, read: read-out: BAY-1251152 (10 µM) / %Intensity relative to DMSO.

Serine/threonine-protein kinase SIK3 ; SIK3 ; Q9Y2K2, sequence (Q9Y2K2 whole entry, one chain of several): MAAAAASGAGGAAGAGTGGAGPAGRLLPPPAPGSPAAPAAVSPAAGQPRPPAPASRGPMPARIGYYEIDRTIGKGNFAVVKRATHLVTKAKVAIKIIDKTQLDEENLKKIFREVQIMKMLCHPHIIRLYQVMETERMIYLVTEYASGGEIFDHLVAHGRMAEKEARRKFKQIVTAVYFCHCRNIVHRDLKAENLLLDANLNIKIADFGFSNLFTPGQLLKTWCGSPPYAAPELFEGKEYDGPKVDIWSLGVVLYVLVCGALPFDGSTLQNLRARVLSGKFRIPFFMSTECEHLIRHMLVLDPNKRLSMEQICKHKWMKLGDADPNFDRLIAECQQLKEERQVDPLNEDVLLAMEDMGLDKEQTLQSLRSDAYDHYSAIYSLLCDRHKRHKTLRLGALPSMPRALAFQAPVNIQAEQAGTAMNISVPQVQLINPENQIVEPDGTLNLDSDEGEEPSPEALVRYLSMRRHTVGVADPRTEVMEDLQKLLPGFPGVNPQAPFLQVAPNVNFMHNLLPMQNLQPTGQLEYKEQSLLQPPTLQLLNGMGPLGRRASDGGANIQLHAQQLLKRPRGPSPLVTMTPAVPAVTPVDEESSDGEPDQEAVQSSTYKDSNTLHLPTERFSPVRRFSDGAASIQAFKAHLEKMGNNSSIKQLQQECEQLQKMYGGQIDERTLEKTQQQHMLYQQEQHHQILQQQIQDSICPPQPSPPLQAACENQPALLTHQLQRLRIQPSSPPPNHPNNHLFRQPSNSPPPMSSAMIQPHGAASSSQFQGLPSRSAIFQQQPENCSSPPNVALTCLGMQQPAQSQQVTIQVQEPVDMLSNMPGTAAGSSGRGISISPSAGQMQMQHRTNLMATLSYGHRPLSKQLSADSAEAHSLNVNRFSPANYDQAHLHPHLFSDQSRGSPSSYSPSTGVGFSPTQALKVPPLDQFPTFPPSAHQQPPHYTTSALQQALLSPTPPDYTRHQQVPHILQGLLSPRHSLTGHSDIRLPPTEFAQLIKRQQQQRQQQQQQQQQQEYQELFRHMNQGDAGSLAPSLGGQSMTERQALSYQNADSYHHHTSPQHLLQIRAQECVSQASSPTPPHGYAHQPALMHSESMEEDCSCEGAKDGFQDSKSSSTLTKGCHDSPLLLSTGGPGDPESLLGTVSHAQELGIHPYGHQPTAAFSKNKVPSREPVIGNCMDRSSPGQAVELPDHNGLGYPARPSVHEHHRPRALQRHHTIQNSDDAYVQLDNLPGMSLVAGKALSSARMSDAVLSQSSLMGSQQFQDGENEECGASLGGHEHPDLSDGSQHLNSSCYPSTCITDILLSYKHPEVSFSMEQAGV
Ephrin type-A receptor 5 ; EPHA5 ; P54756, sequence (P54756 whole entry): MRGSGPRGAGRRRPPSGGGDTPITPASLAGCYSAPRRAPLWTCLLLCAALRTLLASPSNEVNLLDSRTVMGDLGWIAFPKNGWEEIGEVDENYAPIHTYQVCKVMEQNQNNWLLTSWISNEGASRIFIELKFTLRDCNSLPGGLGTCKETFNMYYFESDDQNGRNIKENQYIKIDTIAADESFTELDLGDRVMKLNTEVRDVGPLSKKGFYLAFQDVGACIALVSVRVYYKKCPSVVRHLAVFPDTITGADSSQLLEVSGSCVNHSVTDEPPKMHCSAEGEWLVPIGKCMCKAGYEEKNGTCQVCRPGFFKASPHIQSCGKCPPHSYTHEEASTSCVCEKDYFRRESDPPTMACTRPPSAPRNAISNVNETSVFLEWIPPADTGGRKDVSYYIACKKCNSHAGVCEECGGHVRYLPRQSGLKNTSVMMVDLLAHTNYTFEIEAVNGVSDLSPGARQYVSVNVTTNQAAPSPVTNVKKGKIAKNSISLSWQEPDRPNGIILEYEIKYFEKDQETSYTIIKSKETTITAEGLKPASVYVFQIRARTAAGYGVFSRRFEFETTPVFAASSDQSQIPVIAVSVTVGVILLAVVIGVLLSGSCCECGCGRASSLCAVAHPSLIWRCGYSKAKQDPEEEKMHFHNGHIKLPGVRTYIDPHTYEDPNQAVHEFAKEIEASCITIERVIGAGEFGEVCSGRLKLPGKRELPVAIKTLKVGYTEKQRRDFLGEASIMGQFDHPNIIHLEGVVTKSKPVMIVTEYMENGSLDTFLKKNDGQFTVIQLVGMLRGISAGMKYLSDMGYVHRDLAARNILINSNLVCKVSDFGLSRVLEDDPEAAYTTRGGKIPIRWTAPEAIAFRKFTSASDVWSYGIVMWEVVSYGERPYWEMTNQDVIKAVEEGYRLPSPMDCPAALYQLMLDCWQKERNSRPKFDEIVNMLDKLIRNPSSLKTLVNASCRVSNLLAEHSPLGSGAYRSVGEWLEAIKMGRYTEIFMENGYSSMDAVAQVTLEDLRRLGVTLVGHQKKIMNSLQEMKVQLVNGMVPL

The IC50 is the midpoint of a concentration-inhibition curve. For the molecule `COc1cc(F)ccc1-c1ncnc(Nc2cccc(C[S@](C)(=N)=O)c2)n1` [BAY-1143572], the remaining activity at 10 µM stood at 124% in [1] (setting [11]); 97% in [2] (setting [11]); 99.7% in assay [3] (setting [11]); 109% in assay [4] (setting [11]); 96.6% in assay [5] (setting [11]); 101% in assay [6] (setting [11]). Besides, the IC50 in [7], in [8] and in assay [9] was more than 10 µM in each case.

Turning to `COc1cc(F)ccc1-c1cc(Nc2cc(CS(C)(=N)=O)ccn2)ncc1F` (stereo not shown) [BAY-1251152], the remaining activity at 10 µM was 110% in [1] (setting [12]); 87.9% in [2] (setting [12]); 109% in [3] (setting [12]); 106% in assay [4] (setting [12]); 100% in assay [5] (setting [12]); 107% in assay [6] (setting [12]). In [10], this molecule displayed an IC50 of more than 10 µM.
